# Measurements published in ChEMBL document CHEMBL1201862, “PubChem BioAssay data set” (2004).
#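 All cell lines were grown in 96-well plates and treated with compound for 48 hours. GI50 marks 50% less growth.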 Activity calls are given as the source filed them. No stated cut-off is given here; in the data, active = GI50 up to about 1.1 µM and inactive = higher.
# How the values were obtained:
# Experiment in all cases: inhibition of tumour cell growth, NCI panel, 48 h
# [1] = tested on: CCRF-CEM
# [2] = tested on: SF-268
# [3] = tested on: NCI-H226
# [4] = tested on: UO-31
# [5] = tested on: MCF7
# [6] = tested on: COLO 205
# [7] = tested on: RPMI-8226
# [8] = tested on: NCI-H522
# [9] = tested on: SF-539
# [10] = tested on: Malme-3M
# [11] = tested on: OVCAR-3
# [12] = tested on: MDA-MB-231
# [13] = tested on: NCI-H460
# [14] = tested on: T47D
# [15] = tested on: HCT-116
# [16] = tested on: SK-MEL-5
# [17] = tested on: LOX IMVI
# [18] = tested on: SN12C
# [19] = tested on: SK-MEL-28
# [20] = tested on: SNB-19
# [21] = tested on: SNB-75
# [22] = tested on: NCI/ADR-RES
# [23] = tested on: CAKI-1
# [24] = tested on: EKVX
# [25] = tested on: HOP-92
# [26] = tested on: Hs-578T
# [27] = tested on: SK-OV-3
# [28] = tested on: UACC-257
# [29] = tested on: OVCAR-8
# [30] = tested on: 786-0
# [31] = tested on: U-251
# [32] = tested on: KM12
# [33] = tested on: HCC 2998
# [34] = tested on: DU-145
# [35] = tested on: MDA-N
# [36] = tested on: HT-29
# [37] = tested on: HOP-62
# [38] = tested on: SW-620
# [39] = tested on: UACC-62
# [40] = tested on: SK-MEL-2
# [41] = tested on: BT-549
# [42] = tested on: HCT-15
# [43] = tested on: PC-3
# [44] = tested on: M14
# [45] = tested on: MDA-MB-435
# [46] = tested on: SF-295
# [47] = tested on: TK-10
# [48] = tested on: NCI-H23
# [49] = tested on: ACHN
# [50] = tested on: A549
# [51] = tested on: A498
# [52] = tested on: RXF 393
# [53] = tested on: HL-60
# [54] = tested on: K562
# [55] = tested on: OVCAR-5
# [56] = tested on: OVCAR-4
# [57] = tested on: SR
# [58] = tested on: MOLT-4
# [59] = tested on: IGROV-1
smiles,measurement,setting,value
Nc1ccc2c(c1)C(=O)c1c(F)cccc1-2,GI50,[1],15000 nM (inactive)
same,GI50,[2],17900 nM (inactive)
same,GI50,[3],27700 nM (inactive)
same,GI50,[4],20800 nM (inactive)
same,GI50,[5],10100 nM (inactive)
same,GI50,[6],44300 nM (inactive)
same,GI50,[7],20400 nM (inactive)
same,GI50,[8],34500 nM (inactive)
same,GI50,[9],24500 nM (inactive)
same,GI50,[10],38400 nM (inactive)
same,GI50,[11],25900 nM (inactive)
same,GI50,[12],45600 nM (inactive)
same,GI50,[13],31000 nM (inactive)
same,GI50,[14],63800 nM (inactive)
same,GI50,[15],30500 nM (inactive)
same,GI50,[16],25500 nM (inactive)
same,GI50,[17],41600 nM (inactive)
same,GI50,[18],39100 nM (inactive)
same,GI50,[19],34200 nM (inactive)
same,GI50,[20],53100 nM (inactive)
same,GI50,[21],10400 nM (inactive)
same,GI50,[22],35600 nM (inactive)
same,GI50,[23],23600 nM (inactive)
same,GI50,[24],656 nM (active)
same,GI50,[25],15500 nM (inactive)
same,GI50,[26],27900 nM (inactive)
same,GI50,[27],85700 nM (inactive)
same,GI50,[28],> 100000 nM (inactive)
same,GI50,[29],43100 nM (inactive)
same,GI50,[30],29400 nM (inactive)
same,GI50,[31],53100 nM (inactive)
same,GI50,[32],40500 nM (inactive)
same,GI50,[33],40000 nM (inactive)
same,GI50,[34],45000 nM (inactive)
same,GI50,[35],93300 nM (inactive)
same,GI50,[36],27700 nM (inactive)
same,GI50,[37],30300 nM (inactive)
same,GI50,[38],34500 nM (inactive)
same,GI50,[39],32000 nM (inactive)
same,GI50,[40],81700 nM (inactive)
same,GI50,[41],39300 nM (inactive)
same,GI50,[42],39300 nM
same,GI50,[43],31200 nM (inactive)
same,GI50,[44],50400 nM (inactive)
same,GI50,[45],> 100000 nM (inactive)
same,GI50,[46],46000 nM (inactive)
same,GI50,[47],47200 nM (inactive)
same,GI50,[48],61800 nM (inactive)
same,GI50,[49],34100 nM (inactive)
same,GI50,[50],96600 nM (inactive)
same,GI50,[51],> 100000 nM (inactive)
same,GI50,[52],42200 nM (inactive)
Cc1cc(O)c2c(c1)C(C1c3cccc(O)c3C(=O)c3c(O)cc(C)cc31)c1cccc(O)c1C2=O (stereo not given),GI50,[1],906 nM (active)
same,GI50,[2],311 nM (active)
same,GI50,[3],605 nM (active)
same,GI50,[4],306 nM (active)
same,GI50,[5],331 nM (active)
same,GI50,[6],177 nM (active)
same,GI50,[7],158 nM (active)
same,GI50,[8],417 nM (active)
same,GI50,[9],210 nM (active)
same,GI50,[53],879 nM (active)
same,GI50,[10],329 nM (active)
same,GI50,[11],250 nM (active)
same,GI50,[12],405 nM (active)
same,GI50,[13],198 nM (active)
same,GI50,[54],1020 nM (active)
same,GI50,[14],631 nM (active)
same,GI50,[55],766 nM (active)
same,GI50,[15],314 nM (active)
same,GI50,[16],212 nM (active)
same,GI50,[17],354 nM (active)
same,GI50,[18],322 nM (active)
same,GI50,[19],394 nM (active)
same,GI50,[20],239 nM (active)
same,GI50,[21],243 nM (active)
same,GI50,[22],319 nM (active)
same,GI50,[23],2860 nM (inactive)
same,GI50,[24],417 nM (active)
same,GI50,[25],258 nM (active)
same,GI50,[26],175 nM (active)
same,GI50,[27],356 nM (active)
same,GI50,[28],300 nM (active)
same,GI50,[29],335 nM (active)
same,GI50,[30],466 nM (active)
same,GI50,[31],310 nM (active)
same,GI50,[56],260 nM (active)
same,GI50,[57],345 nM (active)
same,GI50,[32],166 nM (active)
same,GI50,[33],1100 nM (active)
same,GI50,[34],400 nM (active)
same,GI50,[35],705 nM (active)
same,GI50,[36],378 nM (active)
same,GI50,[37],432 nM (active)
same,GI50,[38],448 nM (active)
same,GI50,[58],615 nM (active)
same,GI50,[39],269 nM (active)
same,GI50,[40],294 nM (active)
same,GI50,[59],378 nM (active)
same,GI50,[41],292 nM (active)
same,GI50,[42],317 nM
same,GI50,[43],105 nM (active)
same,GI50,[44],327 nM (active)
same,GI50,[45],340 nM (active)
same,GI50,[46],286 nM (active)
same,GI50,[47],598 nM (active)
same,GI50,[48],370 nM (active)
same,GI50,[49],337 nM (active)
same,GI50,[50],239 nM (active)
same,GI50,[52],220 nM (active)
